Inhibition data for four molecules are collected here from ChEMBL document CHEMBL3352139, “Unambiguous Determination of the Absolute Configuration of Dimeric Stilbene Glucosides from the Rhizomes of Gnetum africanum” (J Nat Prod, 2014).

The target of the assay is Amyloid-beta precursor protein (Homo sapiens) (UniProt P05067). The assay is described as follows: Inhibition of Amyloid beta (25 to 35) (unknown origin) polymerization assessed as reduction in beta-amyloid fibril formation at 10 uM after 6 hrs by UV-visible spectroscopy.
Amyloid-beta precursor protein (Homo sapiens), sequence (P05067 whole entry): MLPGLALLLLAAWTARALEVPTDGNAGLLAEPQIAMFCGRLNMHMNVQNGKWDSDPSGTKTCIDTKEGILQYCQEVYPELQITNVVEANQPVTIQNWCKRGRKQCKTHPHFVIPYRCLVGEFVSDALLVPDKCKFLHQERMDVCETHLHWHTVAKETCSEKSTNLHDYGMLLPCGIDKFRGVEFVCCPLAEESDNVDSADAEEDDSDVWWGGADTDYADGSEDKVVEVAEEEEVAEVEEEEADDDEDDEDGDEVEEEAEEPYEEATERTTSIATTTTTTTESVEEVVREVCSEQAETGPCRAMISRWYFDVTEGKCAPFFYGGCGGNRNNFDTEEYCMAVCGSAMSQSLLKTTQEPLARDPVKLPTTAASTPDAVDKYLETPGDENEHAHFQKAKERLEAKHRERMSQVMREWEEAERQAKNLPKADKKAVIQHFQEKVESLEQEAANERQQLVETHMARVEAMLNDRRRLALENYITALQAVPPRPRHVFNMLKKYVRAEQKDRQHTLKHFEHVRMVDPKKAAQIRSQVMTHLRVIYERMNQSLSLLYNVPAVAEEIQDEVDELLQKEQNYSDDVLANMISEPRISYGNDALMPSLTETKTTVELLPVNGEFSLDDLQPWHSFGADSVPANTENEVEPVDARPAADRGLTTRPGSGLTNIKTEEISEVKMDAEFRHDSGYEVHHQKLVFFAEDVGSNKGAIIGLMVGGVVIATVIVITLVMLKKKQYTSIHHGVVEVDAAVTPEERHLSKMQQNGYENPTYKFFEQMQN
In the case of `OC[C@H]1O[C@@H](Oc2ccc(/C=C/c3cc(O)c4c(c3)O[C@@H](c3ccc(O[C@@H]5O[C@H](CO)[C@@H](O)[C@H](O)[C@H]5O)cc3)[C@@H]4c3cc(O)cc(O)c3)cc2)[C@H](O)[C@@H](O)[C@@H]1O`, the inhibition was 56%.
For `OC[C@H]1O[C@@H](Oc2ccc(/C=C/c3cc(O)c4c(c3)O[C@H](c3ccc(O)cc3)[C@H]4c3cc(O)cc(O)c3)cc2)[C@H](O)[C@@H](O)[C@@H]1O`, the inhibition amounted to 54%.
With `OC[C@H]1O[C@@H](Oc2ccc(/C=C/c3cc(O)c4c(c3)O[C@H](c3ccc(O[C@@H]5O[C@H](CO)[C@@H](O)[C@H](O)[C@H]5O)cc3)[C@H]4c3cc(O)cc(O)c3)cc2)[C@H](O)[C@@H](O)[C@@H]1O` the figure was 56%.
Consider `OC[C@H]1O[C@@H](Oc2ccc([C@H]3Oc4cc(/C=C/c5ccc(O)cc5)cc(O)c4[C@@H]3c3cc(O)cc(O)c3)cc2)[C@H](O)[C@@H](O)[C@@H]1O`, for which the inhibition was found to be 58%.
